Patent US20030186464A1, “Surface plasmon resonance methods” (priority 2002, published 2003)
Positions count from the first letter of the chain named.

How the values were obtained:
IL1R-I13C = target: T1, IL1R-I13C (Homo sapiens, UniProt P14778, I30C); assay: SPR ranking of reversible covalent (disulfide) bond formation with immobilized protein-thiolate (Examples 5-6); assay type: binding; settings: disulfide compound 100 μM, reductant 500 μM; fraction of protein-thiolate on the chip covalently bound
T1 construct: soluble interleukin-1 receptor, type 1 having a mutation to cysteine; made in house; host or cells: E. coli or baculovirus-infected insect cells (TN-5B1-4, High Five)
T1 sequence (P14778 18-336 I30C): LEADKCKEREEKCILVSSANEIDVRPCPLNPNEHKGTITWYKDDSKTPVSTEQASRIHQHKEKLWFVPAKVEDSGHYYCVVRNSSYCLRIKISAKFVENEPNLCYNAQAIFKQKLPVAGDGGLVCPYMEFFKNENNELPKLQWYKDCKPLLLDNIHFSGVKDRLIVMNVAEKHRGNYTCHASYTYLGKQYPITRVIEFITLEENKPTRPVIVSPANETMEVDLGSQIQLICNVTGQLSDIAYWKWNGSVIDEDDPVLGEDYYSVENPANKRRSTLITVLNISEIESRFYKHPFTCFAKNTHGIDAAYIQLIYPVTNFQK
Description: (§1) A CM5 sensor chip (Biacore-BR-1000-14) is docked in a Biacore 2000 SPR device, and the chip is normalized using a standard Biacore protocol with 70% glycerol. The chip is equilibrated in PBS for approximately 1 hr at a 20 μL/min flow rate. The dextran surface of the chip is activated through an NHS/EDC coupling. This is done using an amine coupling kit (Biacore—BR-100-50) containing N-hydroxysuccinimide (NHS 11.5 mg/mL) and N-ethyl-N′-(3-dimethylaminopropyl) carbodiimide hydrochloride (EDC 75 mg/mL). The two reagents are mixed in a 1:1 ratio and then 35 μL of the mixture are injected at 5 μL/min. The chip is activated one flow cell at a time, and that flow cell is subsequently labeled with protein.
(§2) Protein having at least one cysteine is expressed in E. coli or baculovirus-infected insect cells (TN-5B1-4, High Five) and purified using standard procedures. This protein-thiolate is treated with 10 mM βME overnight to reduce the surface cysteine. The βME is removed and the protein-thiolate is placed in 100 mM MES Buffer pH 5.75 (Nap-5 column, Pierce). The protein-thiolate is then concentrated to 100 μM using a Millipore-UFV5BCCOO 5K NMWL membrane, 0.5 mL centrifugal filter and tube.
(§3) A sensorgram is then run over the activated flow cell at 2 μL/min of PBS. The protein-thiolate solution is then injected at 2 μL/min for 10 min. After injection one measures the change in RUs by marking the RUs at t=0 and t final and subtracting them. This subtraction gives the total RU change that is related to the total mass of protein successfully coupled to the CM5 surface. This value will later be used to determine stoichiometry of binding. This procedure is then repeated with various cysteine mutants that are immobilized on the adjacent cells. The sensorgram is then altered to flow across all 4 cells on the CM5 chip at 5,L/min PBS. A solution of 1 M ethanolamine hydrochloride-NaOH pH 8.5 (Amine coupling kit, Biacore—BR-100-50) is injected at 5 μL/min for 7 min. The chip is equilibrated overnight in 100 mM Tris pH 8+0.05% azide+1% DMSO at 20 μL/min.
(§4) Compounds are synthesized with a reactive disulfide linker (see, for example compound 2t in Example 2). From previous “tethering” experiments compounds that preferentially bind and form a covalent bond with specific cysteine mutants at the active sites of proteins are chosen for these SPR experiments. The compounds are known to form this covalent attachment at relatively high levels of reductant [βME (2-mercaptoethanol, Sigma)], indicating a […] noncovalent binding interaction.
(§5) Dilutions series of the compounds are typically performed to produce seven solutions with compound concentrations of 50 mM, 25 mM, 12.5 mM, 6.25 mM, 3.12 mM, 1.56 mM, and 0.78 mM in DMSO, with a final eighth point as a DMSO only baseline. The compounds are then diluted into 100 mM Tris pH 8+0.05% azide+500 μM βME, to final compound concentrations of 500 μM, 250 μM, 125 μM, 62.5 μM, 31.2 μM, 15.6 μM, and 7.8 μM. The compound solutions are injected from lowest concentration to highest at 2 μL/min for 20 min. The SPR software method includes a 1 min wash before injection, the injection and then a 10 min wash after the injection. This particular protocol employs a regeneration step to reduce off the compound that is covalently bound before the next injection. The regeneration is accomplished by injecting 10 mM βME at 2 μL/min for 20 min.
(§6) These dilution series are analyzed by BIAevaluation software version 3.0. Sensorgrams are plotted for compound binding to cells of the chip labeled with protein-thiolate. The sensorgrams are modified by subtracting the sensorgrams for the appropriate compound dilutions over cell 1 (a blank cell). This subtraction step removes any RU changes that might occur due to nonspecific interactions between the compound and the chip itself or refractive changes in the buffer. Finally, the eight sensorgrams produced from the compound dilution series are zeroed at the average of their starting RUs. […]

IL1R-I29C = target: T2, IL1R-I29C (Homo sapiens, UniProt P14778); assay: as above; assay type: binding; settings: disulfide compound 100 μM, reductant 500 μM; fraction of protein-thiolate on the chip covalently bound
T2 construct: soluble interleukin-1 receptor, type 1 having a mutation to cysteine; made in house; host or cells: E. coli or baculovirus-infected insect cells (TN-5B1-4, High Five)
T2 sequence (P14778 18-336 E146C): T1 sequence (P14778 18-336 I30C) with C13I, E129C
Description: as §1, §2, §3, §4, §5, §6

Fraction bound IL1R-I13C (IL1R-I13C) | Fraction bound IL1R-I29C (IL1R-I29C) | SMILES
0.5 | 0.0 | CC(=O)c1ccccc1NC(=O)c1ccc(NC(=O)CSSCCN)cc1 [Compound 12t]
0.0 | 0.6 | NCCSSCCC(=O)NC(c1ccccc1)c1cc2ccccc2cn1 (centres unmarked) [Compound 14t]
0.0 | 0.2 | COc1cc(C(=O)N2CCCC(C(=O)NCCSSCCN)C2)ccc1O (centres unmarked) [Compound 15t]
0.0 | 0.0 | COC(=O)c1cccc(NC(=O)c2ccc(NC(=O)CSSCCN)cc2)c1 [Compound 13t]
